Measurements published in PMC5834943 (ACS chemical biology, 2017).

What was measured:
[1] = target: T1, branched-chain aminotransferase (MtIlvE) (Mycobacterium tuberculosis, UniProt P9WQ75); test: biochemical; assay type: binding
[2] = target: T1, branched-chain aminotransferase (MtIlvE); test: […]; assay type: biochemical; settings: read-out: Ki

T1 sequence (P9WQ75 whole entry): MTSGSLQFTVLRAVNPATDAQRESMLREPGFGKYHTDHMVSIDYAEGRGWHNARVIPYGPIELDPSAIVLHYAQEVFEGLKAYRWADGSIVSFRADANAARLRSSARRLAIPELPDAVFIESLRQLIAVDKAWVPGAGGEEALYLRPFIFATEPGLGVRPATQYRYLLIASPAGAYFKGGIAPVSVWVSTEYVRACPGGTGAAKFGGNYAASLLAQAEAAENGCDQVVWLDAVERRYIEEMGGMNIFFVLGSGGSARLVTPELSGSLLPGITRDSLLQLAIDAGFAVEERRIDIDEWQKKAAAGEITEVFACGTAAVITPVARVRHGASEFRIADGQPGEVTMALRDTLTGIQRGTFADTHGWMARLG

Structure (SMILES)	kinact/KI [1] [M⁻¹ s⁻¹]	KI (inactivation) [2] [µM]
N[C@@H]1CON=C1O [DCS, D-Cycloserine]	0.12	
N[C@H]1CONC1=O [LCS, L-cycloserine]		88
